Drawing on patent publication US20050197350A1, “Novel quinoline, tetrahydroquinazoline, and pyrimidine derivatives and methods of treatment related to the use thereof” (TAISHO PHARMACEUTICAL CO., LTD., priority 2003, published 2005), this text covers IC50 for 25 molecules.

This assay concerns the target MCH receptor (Homo sapiens, UniProt Q99705). The assay is described as follows: High throughput functional screening FLIPR/FDSS6000 (intracellular Ca2+ evoked by MCH). Format: cell-based. The conditions noted are these: FLIPR/FDSS, antagonist activity vs 50 nM MCH; class by percent of control at 10^−7 M or IC50; table after the classification; read-out: class. Put shortly:
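For antagonist testing, compound-treated cells (30 min, 37 °C) were stimulated with 50 nM MCH and intracellular Ca2+ followed by Fluo4 fluorescence on FLIPR/FDSS6000. Receptor was a constitutively active, non-endogenous MCH receptor; dye loading 4 μM Fluo4-AM, 1 h, 37 °C.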

The structures appear in SMILES notation. Where a name gives a salt, the structure may show the parent alone.

Turning to `Cc1cc(N[C@H]2CC[C@@H](NC(=O)c3ccc(F)cc3)CC2)nc2ccccc12` [Example 3169, 4-Fluoro-N-[cis-4-(4-methyl-quinolin-2-ylamino)-cyclohexyl]-benzamide hydrochloride], the IC50 was less than 50 nM. The value for `Cc1cc(N[C@H]2CC[C@@H](NC(=O)c3cccc(F)c3)CC2)nc2ccccc12` [Example 3170, 3-Fluoro-N-[cis-4-(4-methyl-quinolin-2-ylamino)-cyclohexyl]-benzamide hydrochloride] was less than 50 nM; that for `Cc1cc(N[C@H]2CC[C@@H](NC(=O)c3ccccc3F)CC2)nc2ccccc12` [Example 3171, 2-Fluoro-N-[cis-4-(4-methyl-quinolin-2-ylamino)-cyclohexyl]-benzamide hydrochloride] was 50 to 200 nM. As for `Cc1cc(N[C@H]2CC[C@@H](NC(=O)c3ccc(Cl)cc3)CC2)nc2ccccc12` [Example 3172, 4-Chloro-N-[cis-4-(4-methyl-quinolin-2-ylamino)-cyclohexyl]-benzamide hydrochloride], the figure is less than 50 nM; as for `Cc1cc(N[C@H]2CC[C@@H](NC(=O)c3cccnc3O)CC2)nc2ccccc12` [Example 3173, 2-Hydroxy-N-[cis-4-(4-methyl-quinolin-2-ylamino)-cyclohexyl]-nicotinamide hydrochloride], greater than 200 nM; as for `COC(=O)c1cccc(C(=O)N[C@H]2CC[C@@H](Nc3cc(C)c4ccccc4n3)CC2)c1` [Example 3174, N-[cis-4-(4-Methylquinolin-2-ylamino)-cyclohexyl]-isophthalamic acid-methyl ester hydrochloride], less than 50 nM. As for `Cc1cc(N[C@H]2CC[C@@H](NC(=O)c3ccc(Cl)nc3)CC2)nc2ccccc12` [Example 3175, 6-Chloro-N-[cis-4-(4-methyl-quinolin-2-ylamino)-cyclohexyl]-nicotinamide hydrochloride], the figure is less than 50 nM. `Cc1cc(N[C@H]2CC[C@@H](NC(=O)c3ccc(N(C)C)nc3)CC2)nc2ccccc12` [Example 3176, 6-Dimethylamino-N-[cis-4-(4-methyl-quinolin-2-ylamino)-cyclohexyl]-nicotinamide dihydrochloride]: the IC50 lay in the range of 50 to 200 nM. As for `Cc1cc(N[C@H]2CC[C@@H](NC(=O)c3cccc(CO)c3)CC2)nc2ccccc12` [Example 3177, 3-Hydroxymethyl-N-[cis-4-(4-methyl-quinolin-2-ylamino)-cyclohexyl]-benzamide hydrochloride], the IC50 lay within 50 to 200 nM. The value for `Cc1cc(N[C@H]2CC[C@@H](NC(=O)c3cccc(C(N)=O)c3)CC2)nc2ccccc12` [Example 3178, N-[cis-4-(4-Methylquinolin-2-ylamino)-cyclohexyl]-isophthalamide hydrochloride] was 50 to 200 nM; that for `Cc1cc(N[C@H]2CC[C@@H](NC(=O)c3cc(F)cc(Cl)c3)CC2)nc2ccccc12` [Example 3179, 3-Chloro-5-fluoro-N-[cis-4-(4-methyl-quinolin-2-ylamino)-cyclohexyl]-benzamide hydrochloride] was less than 50 nM. With `Cc1cc(N[C@H]2CC[C@@H](NC(=O)c3cc(F)c(F)c(F)c3)CC2)nc2ccccc12` [Example 3180, 3,4,5-Trifluoro-N-[cis-4-(4-methyl-quinolin-2-ylamino)-cyclohexyl]-benzamide hydrochloride], the IC50 was less than 50 nM. As for `Cc1cc(N[C@H]2CC[C@@H](NC(=O)c3ccccn3)CC2)nc2ccccc12` [Example 3181, Pyridine-2-carboxylic acid [cis-4-(4-methyl-quinolin-2-ylamino)-cyclohexyl]-amide hydrochloride], the figure is 50 to 200 nM; as for `Cc1cc(N[C@H]2CC[C@@H](NC(=O)c3cccnc3)CC2)nc2ccccc12` [Example 3182, N-[cis-4-(4-Methyl-quinolin-2-ylamino)-cyclohexyl]-nicotinamide hydrochloride], greater than 200 nM; as for `Cc1cc(N[C@H]2CC[C@@H](NC(=O)c3ccncc3)CC2)nc2ccccc12` [Example 3183, N-[cis-4-(4-Methyl-quinolin-2-ylamino)-cyclohexyl]-isonicotinamide hydrochloride], greater than 200 nM.

In the case of `Cc1cc(N[C@H]2CC[C@@H](NC(=O)c3cc(Cl)ccn3)CC2)nc2ccccc12` [Example 3184, 4-Chloro-pyridine-2-carboxylic acid [cis-4-(4-methyl-quinolin-2-ylamino)-cyclohexyl]-amide hydrochloride], the IC50 was in the range of 50 to 200 nM. The value for `Cc1cc(N[C@H]2CC[C@@H](NC(=O)c3cncc(Br)c3)CC2)nc2ccccc12` [Example 3185, 5-Bromo-N-[cis-4-(4-methyl-quinolin-2-ylamino)-cyclohexyl]-nicotinamide dihydrochloride] was less than 50 nM; that for `Cc1cc(N[C@H]2CC[C@@H](NC(=O)c3ccc(C(F)(F)F)nc3)CC2)nc2ccccc12` [Example 3186, N-[cis-4-(4-Methyl-quinolin-2-ylamino)-cyclohexyl]-6-trifluoromethyl-nicotinamide hydrochloride] was 50 to 200 nM.

On to `Cc1cc(N[C@H]2CC[C@@H](NC(=O)c3ccc(-n4ccnc4)nc3)CC2)nc2ccccc12` [Example 3187, 6-Imidazol-1-yl-N-[cis-4-(4-methyl-quinolin-2-ylamino)-cyclohexyl]-nicotinamide dihydrochloride], for which the IC50 is greater than 200 nM. The value for `CN(C)c1cc(N[C@H]2CC[C@@H](NC(=O)c3ccc(F)c(F)c3)CC2)nc2ccccc12` [Example 3188, N-[cis-4-(4-Dimethylamino-quinolin-2-ylamino)-cyclohexyl]-3,4-difluoro-benzamide hydrochloride] was less than 50 nM; that for `CN(C)c1cc(N[C@H]2CC[C@@H](NC(=O)c3csc([N+](=O)[O-])c3)CC2)nc2ccccc12` [Example 3189, 5-Nitro-thiophene-3-carboxylic acid [cis-4-(4-dimethylamino-quinolin-2-ylamino)-cyclohexyl]-amide hydrochloride] was less than 50 nM; that for `CN(C)c1cc(N[C@H]2CC[C@@H](CNC(=O)c3ccc(F)c(F)c3)CC2)nc2ccccc12` [Example 3190, N-[cis-4-(4-Dimethylamino-quinolin-2-ylamino)-cyclohexylmethyl]-3,4-difluoro-benzamide hydrochloride] was 50 to 200 nM.

On to `CN(C)c1cc(N[C@H]2CC[C@@H](CNC(=O)Nc3cccc(Cl)c3Cl)CC2)nc2ccccc12` [Example 3191, 1-(2,3-Dichloro-phenyl)-3-[cis-4-(4-dimethylamino-quinolin-2-ylamino)-cyclohexylmethyl]-urea hydrochloride], for which the IC50 is 50 to 200 nM. `CN(C)c1nc(N[C@H]2CC[C@@H](NC(=O)c3ccc(F)c(F)c3)CC2)nc2c1CCCC2` [Example 3192, N-[cis-4-(4-dimethylamino-5,6,7,8-tetrahydro-quinazolin-2-ylamino)-cyclohexyl]-3,4-difluoro-benzamide hydrochloride]: the IC50 was less than 50 nM. The value for `CN(C)c1nc(N[C@H]2CC[C@@H](NC(=O)c3csc([N+](=O)[O-])c3)CC2)nc2c1CCCC2` [Example 3193, 5-Nitro-thiophene-3-carboxylic acid [cis-4-(4-dimethylamino-5,6,7,8-tetrahydro-quinazolin-2-ylamino)-cyclohexyl]-amide hydrochloride] was less than 50 nM.
